Series [1] concerns pLAI reporter virus. The series can be described thus: microbe, parasite or virus in culture. The format is cell-based, HIV. To be noted: Human immunodeficiency virus 1, MT4, 72 h.
Series [2] in a line: in vitro. To be noted: human, uninfected MT-4 cells.
Protocol: Compounds were serially diluted (1:3) in DMSO on 384-well polypropylene plates and further diluted 200-fold into complete RPMI media (10% FBS, 1% P/S) using the Biotek Micro Flow and Labcyte ECHO acoustic dispenser. […] Infected and uninfected MT-4 cells were further diluted in complete RPMI media and added to each plate using a Micro Flow dispenser. After 5 days incubation in a humidified and temperature controlled incubator (37° C.), Cell Titer Glo (Promega) was added to the assay plates and chemiluminescence read using an Envision plate-reader.
Assays were performed as above except uninfected MT-4 cells were added to each well containing test compound. In addition, 10 μM puromycin was added to the last column of each assay plate to assess a base level of cytotoxicity.
For series [3], the system named is HIV-1 (IIIB). The series can be described thus: microbe, parasite or virus in culture. Format: cell-based. To be noted: Human immunodeficiency virus 1, IIIB, MT4, 120 h, HIV-1 (IIIB) in MT-4 cells, 5 days incubation, Cell Titer Glo; read-out: MT4 EC50.
Protocol: Compounds were tested in a high-throughput 384-well assay format for their ability to inhibit the replication of HIV-1 (IIIB) in MT-4 cells. Compounds were serially diluted (1:3) in DMSO on 384-well polypropylene plates and further diluted 200-fold into complete RPMI media (10% FBS, 1% P/S) using the Biotek Micro Flow and Labcyte ECHO acoustic dispenser. Each plate contained up to 8 test compounds, with negative (No Drug Control) and 5 μM AZT positive controls. MT-4 cells were pre-infected with 10 μL of either RPMI (mock-infected) or a fresh 1:250 dilution of HIV-1 IIIB concentrated virus stock. Infected and uninfected MT-4 cells were further diluted in complete RPMI media and added to each plate using a Micro Flow dispenser. After 5 days incubation in a humidified and temperature controlled incubator (37° C.), Cell Titer Glo (Promega) was added to the assay plates and chemiluminescence read using an Envision plate-reader.

Where two headings read alike, the source gives them in different places.

Experimental findings from patent US20250115620A1, “BRIDGED TRICYCLIC CARBAMOYLPYRIDONE COMPOUNDS AND USES THEREOF” (Gilead Sciences, Inc., priority 2022, published 2025) are described below.

One may read the EC50 as the concentration that produces a half-maximal response. As usually defined, the CC50 is the concentration giving 50% cytotoxicity. A higher CC50 goes with better tolerance by the cells.

Consider `C[C@H]1CC[C@]2(CC(C(F)F)=NO2)[C@H]2CN1C(=O)c1c(O)c(=O)c(C(=O)NCc3c(F)cc(F)cc3F)cn12` [Example 20, (3′S,5S,7′R)-3-(difluoromethyl)-12′-hydroxy-3′-methyl-1′,11′-dioxo-N-(2,4,6-trifluorobenzyl)-1′,4′,5′,11′-tetrahydro-3′H,4H,7′H-spiro[isoxazole-5,6′-[2,7]methanopyrido[1,2-a][1,4]diazonine]-10′-carboxamide], for which the values for the EC50 in series [1] (read-out: RLUC 50% HS EC50), in series [1] (read-out: RLUC CCM EC50) and in series [3] were 168 nM, 0.3 nM and 1.2 nM, respectively. Besides, the CC50 at 5 days in series [2] worked out at 12400 nM.
Turning to `C[C@H]1CC[C@]2(CC(C(F)F)=NO2)[C@H]2CN1C(=O)c1c(O)c(=O)c(C(=O)NCc3ccc(F)cc3F)cn12` [Example 21, (3′S,5S,7′R)—N-(2,4-difluorobenzyl)-3-(difluoromethyl)-12′-hydroxy-3′-methyl-1′,11′-dioxo-1′,4′,5′,11′-tetrahydro-3′H,4H,7′H-spiro[isoxazole-5,6′-[2,7]methanopyrido[1,2-a][1,4]diazonine]-10′-carboxamide], the figures for the concentration giving a half-maximal response (EC50) in series [1] (read-out: RLUC 50% HS EC50), in series [1] (read-out: RLUC CCM EC50) and in series [3] were 72.7 nM, 0.3 nM and 1.4 nM, respectively. The compound also registered a 50% cytotoxic concentration (CC50) at 5 days in series [2] of 29300 nM.
As for `CC1=NO[C@]2(CC[C@H](C)N3C[C@H]2n2cc(C(=O)NCc4ccc(F)cc4F)c(=O)c(O)c2C3=O)C1C` (stereo partly drawn) [Example 23, (3′S,5R,7′R)—N-(2,4-difluorobenzyl)-12′-hydroxy-3,3′,4-trimethyl-1′,11′-dioxo-1′,4′,5′,11′-tetrahydro-3′H,4H,7′H-spiro[isoxazole-5,6′-[2,7]methanopyrido[1,2-a][1,4]diazonine]-10′-carboxamide], the values for the EC50 in series [1] (read-out: RLUC 50% HS EC50), in series [1] (read-out: RLUC CCM EC50) and in series [3] were 0.9 nM, 0.5 nM and 1.2 nM, respectively. This compound also returned a CC50 at 5 days in series [2] of no less than 50000 nM.
In the case of `CC1=NO[C@]2(CC[C@H](C)N3C[C@H]2n2cc(C(=O)NCc4ccc(F)cc4F)c(=O)c(O)c2C3=O)C1O` (stereo partly drawn) [Example 24, (3′S,5S,7′R)—N-(2,4-difluorobenzyl)-4,12′-dihydroxy-3,3′-dimethyl-1′,11′-dioxo-1′,4′,5′,11′-tetrahydro-3′H,4H,7′H-spiro[isoxazole-5,6′-[2,7]methanopyrido[1,2-a][1,4]diazonine]-10′-carboxamide], the EC50 amounted to 4.9 nM in series [1] (read-out: RLUC 50% HS EC50), 2.8 nM in series [1] (read-out: RLUC CCM EC50) and 5.9 nM in series [3]. The same compound gave a CC50 at 5 days in series [2] of no less than 50000 nM.
For the compound `CC1=NO[C@]2(CC[C@H](C)N3C[C@H]2n2cc(C(=O)NCc4ccc(F)cc4F)c(=O)c(O)c2C3=O)C1=O` [Example 25, (3′S,5S,7′R)—N-(2,4-difluorobenzyl)-12′-hydroxy-3,3′-dimethyl-1′,4,11′-trioxo-1′,4′,5′,11′-tetrahydro-3′H,4H,7′H-spiro[isoxazole-5,6′-[2,7]methanopyrido[1,2-a][1,4]diazonine]-10′-carboxamide], the half-maximal effective concentration (EC50) in series [1] (read-out: RLUC 50% HS EC50) was 58.1 nM; in series [1] (read-out: RLUC CCM EC50), 34 nM; in series [3], no less than 100 nM. In series [2], the CC50 at 5 days was no less than 50000 nM.
As to `CC1=NO[C@@]2(CC[C@H](C)N3C[C@H]2n2cc(C(=O)NCc4ccc(F)cc4F)c(=O)c(O)c2C3=O)[C@H]1C` [Example 26, (3′S,4S,5S,7′R)—N-(2,4-difluorobenzyl)-12′-hydroxy-3,3′,4-trimethyl-1′,11′-dioxo-1′,4′,5′,11′-tetrahydro-3′H,4H,7′H-spiro[isoxazole-5,6′-[2,7]methanopyrido[1,2-a][1,4]diazonine]-10′-carboxamide], the figures for the concentration giving a half-maximal response (EC50) in series [1] (read-out: RLUC 50% HS EC50), in series [1] (read-out: RLUC CCM EC50) and in series [3] were 9.5 nM, 0.3 nM and 0.5 nM, respectively. For the same compound, in series [2], the CC50 at 5 days was determined as 13000 nM.
Take `CC1=NO[C@@]2(CC[C@H](C)N3C[C@H]2n2cc(C(=O)NCc4ccc(F)cc4F)c(=O)c(O)c2C3=O)[C@H]1O` [Example 28, (3′S,4S,5R,7′R)—N-(2,4-difluorobenzyl)-4,12′-dihydroxy-3,3′-dimethyl-1′,11′-dioxo-1′,4′,5′,11′-tetrahydro-3′H,4H,7′H-spiro[isoxazole-5,6′-[2,7]methanopyrido[1,2-a][1,4]diazonine]-10′-carboxamide]: the EC50 came to 51.5 nM in series [1] (read-out: RLUC 50% HS EC50), 0.4 nM in series [1] (read-out: RLUC CCM EC50) and 0.9 nM in series [3]. This compound also had a 50% cytotoxic concentration (CC50) at 5 days in series [2] of 47000 nM.
On to `CC1=NO[C@@]2(CC[C@H](C)N3C[C@H]2n2cc(C(=O)NCc4ccc(F)cc4F)c(=O)c(O)c2C3=O)C1=O` [Example 29, (3′S,5R,7′R)—N-(2,4-difluorobenzyl)-12′-hydroxy-3,3′-dimethyl-1′,4,11′-trioxo-1′,4′,5′,11′-tetrahydro-3′H,4H,7′H-spiro[isoxazole-5,6′-[2,7]methanopyrido[1,2-a][1,4]diazonine]-10′-carboxamide], for which the EC50 was found to be 168 nM in series [1] (read-out: RLUC 50% HS EC50), 0.8 nM in series [1] (read-out: RLUC CCM EC50) and 1.7 nM in series [3]. The CC50 at 5 days in series [2] is no less than 50000 nM.
Take `CC1=NO[C@@]2(CC[C@H](C)N3C[C@H]2n2cc(C(=O)NCc4ccc(F)cc4F)c(=O)c(O)c2C3=O)[C@@H]1O` [Example 30, (3′S,4R,5R,7′R)—N-(2,4-difluorobenzyl)-4,12′-dihydroxy-3,3′-dimethyl-1′,11′-dioxo-1′,4′,5′,11′-tetrahydro-3′H,4H,7′H-spiro[isoxazole-5,6′-[2,7]methanopyrido[1,2-a][1,4]diazonine]-10′-carboxamide]: the EC50 in series [1] (read-out: RLUC 50% HS EC50) was 79.4 nM; in series [1] (read-out: RLUC CCM EC50), 0.5 nM; in series [3], 1.2 nM. In series [2], this compound came in with a CC50 at 5 days of 40000 nM.
For the compound `CC1=NO[C@@]2(CC[C@H](C)N3C[C@H]2n2cc(C(=O)NCc4c(F)cc(F)cc4F)c(=O)c(O)c2C3=O)[C@H]1O` [Example 31, (3′S,4S,5R,7′R)-4,12′-dihydroxy-3,3′-dimethyl-1′,11′-dioxo-N-(2,4,6-trifluorobenzyl)-1′,4′,5′,11′-tetrahydro-3′H,4H,7′H-spiro[isoxazole-5,6′-[2,7]methanopyrido[1,2-a][1,4]diazonine]-10′-carboxamide], the values for the EC50 in series [1] (read-out: RLUC 50% HS EC50), in series [1] (read-out: RLUC CCM EC50) and in series [3] were 47.2 nM, 0.3 nM and 1.4 nM, respectively. In series [2], this compound registered a CC50 at 5 days of 30000 nM.
Take `CC1=NO[C@@]2(CC[C@H](C)N3C[C@H]2n2cc(C(=O)NCc4c(F)cc(F)cc4F)c(=O)c(O)c2C3=O)[C@H]1F` [Example 32, (3′S,4S,5R,7′R)-4-fluoro-12′-hydroxy-3,3′-dimethyl-1′,11′-dioxo-N-(2,4,6-trifluorobenzyl)-1′,4′,5′,11′-tetrahydro-3′H,4H,7′H-spiro[isoxazole-5,6′-[2,7]methanopyrido[1,2-a][1,4]diazonine]-10′-carboxamide]: the EC50 in series [1] (read-out: RLUC 50% HS EC50) turned out to be 261 nM; in series [1] (read-out: RLUC CCM EC50), 0.4 nM; in series [3], 1.5 nM. This compound came in with a CC50 at 5 days in series [2] of 21200 nM.
For the compound `CC1=NO[C@@]2(CC[C@H](C)N3C[C@H]2n2cc(C(=O)NCc4c(F)cc(F)cc4F)c(=O)c(O)c2C3=O)[C@@H]1F` [Example 33, (3′S,4R,5R,7′R)-4-fluoro-12′-hydroxy-3,3′-dimethyl-1′,11′-dioxo-N-(2,4,6-trifluorobenzyl)-1′,4′,5′,11′-tetrahydro-3′H,4H,7′H-spiro[isoxazole-5,6′-[2,7]methanopyrido[1,2-a][1,4]diazonine]-10′-carboxamide], the EC50 in series [1] (read-out: RLUC 50% HS EC50) was 342 nM; in series [1] (read-out: RLUC CCM EC50), 0.4 nM; in series [3] it was 0.7 nM. In series [2], the CC50 at 5 days turned out to be 14100 nM.
The matching figures for `CC1=NO[C@@]2(CC[C@H](C)N3C[C@H]2n2cc(C(=O)NCc4ccc(F)c(Cl)c4F)c(=O)c(O)c2C3=O)[C@H]1C` [Example 34, (3′S,4S,5S,7′R)—N-(3-chloro-2,4-difluorobenzyl)-12′-hydroxy-3,3′,4-trimethyl-1′,11′-dioxo-1′,4′,5′,11′-tetrahydro-3′H,4H,7′H-spiro[isoxazole-5,6′-[2,7]methanopyrido[1,2-a][1,4]diazonine]-10′-carboxamide]: 76.7 nM, 0.2 nM, 0.6 nM and 13600 nM.
As to `CC1=NO[C@@]2(CC[C@H](C)N3C[C@H]2n2cc(C(=O)NCc4ccc(F)c(Cl)c4F)c(=O)c(O)c2C3=O)[C@H]1O` [Example 35, (3′S,4S,5R,7′R)—N-(3-chloro-2,4-difluorobenzyl)-4,12′-dihydroxy-3,3′-dimethyl-1′,11′-dioxo-1′,4′,5′,11′-tetrahydro-3′H,4H,7′H-spiro[isoxazole-5,6′-[2,7]methanopyrido[1,2-a][1,4]diazonine]-10′-carboxamide], the results for the concentration for a half-maximal effect (EC50) in series [1] (read-out: RLUC 50% HS EC50), in series [1] (read-out: RLUC CCM EC50) and in series [3] were 102 nM, 0.3 nM and 0.9 nM, respectively. This compound registered a CC50 at 5 days in series [2] of 20300 nM.
`COC1=NO[C@@]2(CC[C@H](C)N3C[C@H]2n2cc(C(=O)NCc4c(F)cc(F)cc4F)c(=O)c(O)c2C3=O)C1` [Example 36, (3′S,5S,7′R)-12′-hydroxy-3-methoxy-3′-methyl-1′,11′-dioxo-N-(2,4,6-trifluorobenzyl)-1′,4′,5′,11′-tetrahydro-3′H,4H,7′H-spiro[isoxazole-5,6′-[2,7]methanopyrido[1,2-a][1,4]diazonine]-10′-carboxamide]: the EC50 in series [1] (read-out: RLUC 50% HS EC50) came to 27.6 nM; in series [1] (read-out: RLUC CCM EC50) it was 0.2 nM; in series [3] it was 0.7 nM. In series [2], this compound registered a CC50 at 5 days of 19500 nM.
Take `COC1=NO[C@]2(CC[C@H](C)N3C[C@H]2n2cc(C(=O)NCc4c(F)cc(F)cc4F)c(=O)c(O)c2C3=O)C1` [Example 37, (3′S,5R,7′R)-12′-hydroxy-3-methoxy-3′-methyl-1′,11′-dioxo-N-(2,4,6-trifluorobenzyl)-1′,4′,5′,11′-tetrahydro-3′H,4H,7′H-spiro[isoxazole-5,6′-[2,7]methanopyrido[1,2-a][1,4]diazonine]-10′-carboxamide]: the EC50 turned out to be 8.3 nM in series [1] (read-out: RLUC 50% HS EC50), 0.7 nM in series [1] (read-out: RLUC CCM EC50) and 1.6 nM in series [3]. This compound registered a cytotoxic concentration (CC50) at 5 days in series [2] of 49900 nM.
